{
  "source": "patent US5304631A",
  "about": "“Synthetic helizyme enzymes” (University of Colorado Foundation, Inc., priority 1990, dated 1994)",
  "format_in_all_cases": "biochemical",
  "key": {"[1]": {"test_system": "monomeric Chymohelizyme 1", "experiment": "Inhibition of substrate hydrolysis by Chymohelizyme 1 by specific chymotrypsin inhibitors", "excerpt": "Inclusion of indole at a concentration equal to that of the substrate ZTONP caused approximately 70% inhibition of substrate hydrolysis."}, "[2]": {"experiment": "Hydrolysis of ATEE (esterase activity), followed by titration", "conditions": "pH 8.1, 0.05 molar sodium chloride solution", "procedure": "Hydrolysis of ATEE at pH 8.1 in 0.05 molar sodium chloride solution followed classical Michaelis-Menten kinetics; kM=1.0 mM and kcat=0.042/sec(corresponding values for chymotrypsin are 0.7 mM; 3.0/sec), showing an activity approximately 1% that of chymotrypsin for this substrate.\nHydrolysis of BTEE and ZTONP were performed as described (Meth. Enzymol. volume XIX, Academic Press, New York, 1970, pp. 38-41). The progress of the reaction was followed spectrophotometrically. Progress of the hydrolysis of ATEE was followed by titration."}, "[3]": {"experiment": "Hydrolysis of ZTONP (esterase activity), followed spectrophotometrically", "conditions": "initial turnover number", "procedure": "Kinetic studies of purified Chymohelizyme 1 were performed using ATEE, BTEE or ZTONP as the substrate.\nThe progress of the reaction was followed spectrophotometrically. Progress of the hydrolysis of ATEE was followed by titration."}},
  "data": [
    {"compound": "c1ccc2[nH]ccc2c1", "note": "[indole]", "values": [
      {"measurement": "inhibition of hydrolysis of substrates by monomeric Chymohelizyme 1", "setting": "[1]", "result": "inhibited"},
      {"measurement": "inhibition of substrate hydrolysis", "setting": "[1]; inhibitor at a concentration equal to that of the substrate ZTONP", "result": "approximately 70%"}
    ]},
    {"compound": "Cc1ccc(O)cc1", "note": "[p-cresol]", "values": [
      {"measurement": "inhibition of hydrolysis of substrates by monomeric Chymohelizyme 1", "setting": "[1]", "result": "inhibited"}
    ]},
    {"compound": "chymotrypsin", "values": [
      {"measurement": "Km", "setting": "[2]", "result": 700, "unit": "µM"},
      {"measurement": "kcat", "setting": "[2]", "result": 3.0, "unit": "s⁻¹"},
      {"measurement": "turnover number", "setting": "[3]", "result": 300, "unit": "s⁻¹"}
    ]}
  ]
}
